Laboratory results as given in PubChem BioAssay AID2060338 (Molecular Pharmacology Branch, DTP, NCI, 2025).
“And” between values parts separate entries of the source, which are not always exact repeats. Equal values may be shown once.

System: 556581-035-R-J1-PDC spheroids with HUVEC/MSC, viability
Experiment: Anticancer human tumor 556581-035-R-J1-PDC patient-derived ovarian carcinoma cell line growth inhibition [IpAb]
Settings: for viability, T/C: stronger effect = lower value; active = viability on the fitted dose curve at most 10% of control; inactive = the rest
Procedure, shortened: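 Combinations with ipatasertib or abemaciclib were tested on tumour spheroids holding HUVEC (25%) and MSC (15%) alongside 60% malignant cells. Top concentration was at or near clinical Cmax (10 microM if undefined), descending in half-log steps.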

[1] = curve of first compound, second compound 0.1 µM
[2] = curve of first compound, second compound 0.316 µM
[3] = curve of first compound, second compound 1 µM
[4] = curve of first compound, second compound 3.16 µM
[5] = curve of first compound, second compound 10 µM
[6] = second compound 0.1 µM, first compound 0.00949 µM
[7] = second compound 0.1 µM, first compound 0.03 µM
[8] = second compound 0.1 µM, first compound 0.0949 µM
[9] = second compound 0.1 µM, first compound 0.3 µM
[10] = second compound 0.316 µM, first compound 0.00949 µM
[11] = second compound 0.316 µM, first compound 0.03 µM
[12] = second compound 0.316 µM, first compound 0.0949 µM
[13] = second compound 0.316 µM, first compound 0.3 µM
[14] = second compound 1 µM, first compound 0.00949 µM
[15] = second compound 1 µM, first compound 0.03 µM
[16] = second compound 1 µM, first compound 0.0949 µM
[17] = second compound 1 µM, first compound 0.3 µM
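Note: spheroids exposed to compounds for 7 days before readout.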

Cn1ncc(Cl)c1-c1cc(C(=O)NC(CN)Cc2cccc(F)c2)sc1Cl (configuration not stated)
2320 nM and 2410 nM: IC50 (curve of compound)
inactive: viability, T/C (compound 0.0316 µM) 90.6% and 96.9% | viability, T/C (compound 0.1 µM) 81% and 74.5% | viability, T/C (compound 0.316 µM) 71.5% and 69.2% | viability, T/C (compound 1 µM) 60.2% and 70.8% | viability, T/C (compound 3.16 µM) 52.5% and 47.6%
active: viability, T/C (compound 10 µM) 0.3% and 0.29%

Cc1nc(NC(=O)N2CCCC2C(N)=O)sc1-c1ccnc(C(C)(C)C(F)(F)F)c1 (configuration not stated) + CC(C)NCC(C(=O)N1CCN(c2ncnc3c2C(C)CC3O)CC1)c1ccc(Cl)cc1
48.4 nM: IC50 [3]
504 nM: IC50 [1]
inactive: viability, T/C (second compound 0.1 µM, first compound 0.0316 µM) 81.8% | viability, T/C (second compound 0.1 µM, first compound 0.1 µM) 68.6% | viability, T/C (second compound 0.1 µM, first compound 0.316 µM) 56.8% | viability, T/C (second compound 0.1 µM, first compound 1 µM) 38.8% | viability, T/C (second compound 0.1 µM, first compound 3.16 µM) 31% | viability, T/C (second compound 0.1 µM, first compound 10 µM) 11.3% | viability, T/C (second compound 0.316 µM, first compound 0.0316 µM) 62% | viability, T/C (second compound 0.316 µM, first compound 0.1 µM) 57.6% | viability, T/C (second compound 0.316 µM, first compound 0.316 µM) 40.3% | viability, T/C (second compound 0.316 µM, first compound 1 µM) 39.2% | viability, T/C (second compound 0.316 µM, first compound 3.16 µM) 33% | viability, T/C (second compound 0.316 µM, first compound 10 µM) 11.3% | viability, T/C (second compound 1 µM, first compound 0.0316 µM) 48.5% | viability, T/C (second compound 1 µM, first compound 0.1 µM) 53.8% | viability, T/C (second compound 1 µM, first compound 0.316 µM) 39.8% | viability, T/C (second compound 1 µM, first compound 1 µM) 36.2% | viability, T/C (second compound 1 µM, first compound 3.16 µM) 27.4% | viability, T/C (second compound 1 µM, first compound 10 µM) 16.2% | viability, T/C (second compound 3.16 µM, first compound 0.0316 µM) 41.8% | viability, T/C (second compound 3.16 µM, first compound 0.1 µM) 43.2% | viability, T/C (second compound 3.16 µM, first compound 0.316 µM) 43.5% | viability, T/C (second compound 3.16 µM, first compound 1 µM) 35.6% | viability, T/C (second compound 3.16 µM, first compound 3.16 µM) 24.6% | viability, T/C (second compound 3.16 µM, first compound 10 µM) 10.7% | viability, T/C (second compound 10 µM, first compound 0.0316 µM) 38.6% | viability, T/C (second compound 10 µM, first compound 0.1 µM) 42.4% | viability, T/C (second compound 10 µM, first compound 0.316 µM) 35.7% | viability, T/C (second compound 10 µM, first compound 1 µM) 27.2% | viability, T/C (second compound 10 µM, first compound 3.16 µM) 22.9%
active: viability, T/C (second compound 10 µM, first compound 10 µM) 4.11%
206 nM: IC50 [2]
< 31.6 nM: IC50 [4] | IC50 [5]

Cn1cnc2c(F)c(Nc3ccc(Br)cc3Cl)c(C(=O)NOCCO)cc21 + CC(C)NCC(C(=O)N1CCN(c2ncnc3c2C(C)CC3O)CC1)c1ccc(Cl)cc1
55.3 nM: IC50 [3]
active: viability, T/C (second compound 1 µM, first compound 3 µM) 7.02% | viability, T/C (second compound 3.16 µM, first compound 3 µM) 6.95% | viability, T/C (second compound 10 µM, first compound 3 µM) 3.58%
218 nM: IC50 [2]
inactive: viability, T/C [6] 91.4% | viability, T/C [7] 89.3% | viability, T/C [8] 81.6% | viability, T/C [9] 55.5% | viability, T/C (second compound 0.1 µM, first compound 0.949 µM) 38.1% | viability, T/C (second compound 0.1 µM, first compound 3 µM) 14.7% | viability, T/C [10] 69.1% | viability, T/C [11] 60.5% | viability, T/C [12] 61% | viability, T/C [13] 46.4% | viability, T/C (second compound 0.316 µM, first compound 0.949 µM) 28.6% | viability, T/C (second compound 0.316 µM, first compound 3 µM) 14.2% | viability, T/C [14] 59.7% | viability, T/C [15] 55.6% | viability, T/C [16] 46.1% | viability, T/C [17] 31.7% | viability, T/C (second compound 1 µM, first compound 0.949 µM) 20.4% | viability, T/C (second compound 3.16 µM, first compound 0.00949 µM) 45.9% | viability, T/C (second compound 3.16 µM, first compound 0.03 µM) 40.7% | viability, T/C (second compound 3.16 µM, first compound 0.0949 µM) 33.9% | viability, T/C (second compound 3.16 µM, first compound 0.3 µM) 25% | viability, T/C (second compound 3.16 µM, first compound 0.949 µM) 15.4% | viability, T/C (second compound 10 µM, first compound 0.00949 µM) 37.3% | viability, T/C (second compound 10 µM, first compound 0.03 µM) 38.6% | viability, T/C (second compound 10 µM, first compound 0.0949 µM) 29.6% | viability, T/C (second compound 10 µM, first compound 0.3 µM) 21.2% | viability, T/C (second compound 10 µM, first compound 0.949 µM) 13.8%
< 9.49 nM: IC50 [4] | IC50 [5]
473 nM: IC50 [1]

CC(=O)c1c(C)c2cnc(Nc3ccc(N4CCNCC4)cn3)nc2n(C2CCCC2)c1=O + CCN1CCN(Cc2ccc(Nc3ncc(F)c(-c4cc(F)c5nc(C)n(C(C)C)c5c4)n3)nc2)CC1
> 300 nM: IC50 (curve of first compound, second compound 0.01 µM) | IC50 (curve of first compound, second compound 0.0316 µM) | IC50 [1] | IC50 [2] | IC50 [3]
inactive: viability, T/C (second compound 0.01 µM, first compound 0.000949 µM) 99.9% | viability, T/C (second compound 0.01 µM, first compound 0.003 µM) 106% | viability, T/C (second compound 0.01 µM, first compound 0.00949 µM) 117% | viability, T/C (second compound 0.01 µM, first compound 0.03 µM) 100% | viability, T/C (second compound 0.01 µM, first compound 0.0949 µM) 82.7% | viability, T/C (second compound 0.01 µM, first compound 0.3 µM) 88.3% | viability, T/C (second compound 0.0316 µM, first compound 0.000949 µM) 76.2% | viability, T/C (second compound 0.0316 µM, first compound 0.003 µM) 93.2% | viability, T/C (second compound 0.0316 µM, first compound 0.00949 µM) 101% | viability, T/C (second compound 0.0316 µM, first compound 0.03 µM) 91.3% | viability, T/C (second compound 0.0316 µM, first compound 0.0949 µM) 92.2% | viability, T/C (second compound 0.0316 µM, first compound 0.3 µM) 76.1% | viability, T/C (second compound 0.1 µM, first compound 0.000949 µM) 81.7% | viability, T/C (second compound 0.1 µM, first compound 0.003 µM) 84.4% | viability, T/C [6] 82% | viability, T/C [7] 87.3% | viability, T/C [8] 80.2% | viability, T/C [9] 89.1% | viability, T/C (second compound 0.316 µM, first compound 0.000949 µM) 89.5% | viability, T/C (second compound 0.316 µM, first compound 0.003 µM) 84.4% | viability, T/C [10] 94.6% | viability, T/C [11] 68.8% | viability, T/C [12] 81.3% | viability, T/C [13] 64% | viability, T/C (second compound 1 µM, first compound 0.000949 µM) 49.9% | viability, T/C (second compound 1 µM, first compound 0.003 µM) 57.8% | viability, T/C [14] 46.6% | viability, T/C [15] 55% | viability, T/C [16] 49.8% | viability, T/C [17] 54%
